From patent US20120052064A1, “ANTI-HGF ANTIBODY COMBINATIONAL CANCER THERAPIES” (priority 2009, published 2012)

Experiments:
[1] = tested on: KP-4 human pancreatic tumor xenograft; details: 40 mg/kg
Experimental: Sunitinib was administered orally and once-daily at a dose of 40 mg/kg on days 11-25 as its 0.5% methyl cellulose suspension. Administration volume was 10 mL/kg.

[2] = tested on: IM95m human gastric tumor xenograft; test: Human gastric cancer IM95m tumor xenograft model; assay type: in vivo, mouse; details: SCID mice, s.c. IM95m; day 53 to day 81; HuL2G7 10 mg/kg i.v. once-weekly, erlotinib 25 mg/kg p.o. once-daily days 53-80, or both
Experimental: FIG. 1. (A) Combination effects of humanized L2G7 (HuL2G7) and erlotinib in gastric cancer (tumor) IM95m xenograft model. Treatment was started from 53 days after inoculation. Mice treated with relevant vehicles (i.v. and/or p.o.), HuL2G7 (10 mg/kg/week, i.v., on days 53, 60, 67, and 74), erlotinib (25 mg/kg, p.o., qd×28 doses) or the combined regimen for 28 days. Data represents mean±SD (n=6). *p≦0.025 by one-tailed Dunnett's test (v.s. vehicle). (B) Comparison of differential tumor volumes of the mice group treated with HuL2G7, erlotinib, and a combination of the two. Tumor volume of each mouse on days 53 was subtracted from the volume on days 81. Data represents mean±SD (n=6). # p≦0.05 by Wilcoxon signed-rank test (v.s. combo).

c-Met receptor = c-Met receptor (Homo sapiens, UniProt P08581); details: read-out: Kd, high affinity binding site; cited from earlier work
Chain of c-Met receptor (P08581 25-1390): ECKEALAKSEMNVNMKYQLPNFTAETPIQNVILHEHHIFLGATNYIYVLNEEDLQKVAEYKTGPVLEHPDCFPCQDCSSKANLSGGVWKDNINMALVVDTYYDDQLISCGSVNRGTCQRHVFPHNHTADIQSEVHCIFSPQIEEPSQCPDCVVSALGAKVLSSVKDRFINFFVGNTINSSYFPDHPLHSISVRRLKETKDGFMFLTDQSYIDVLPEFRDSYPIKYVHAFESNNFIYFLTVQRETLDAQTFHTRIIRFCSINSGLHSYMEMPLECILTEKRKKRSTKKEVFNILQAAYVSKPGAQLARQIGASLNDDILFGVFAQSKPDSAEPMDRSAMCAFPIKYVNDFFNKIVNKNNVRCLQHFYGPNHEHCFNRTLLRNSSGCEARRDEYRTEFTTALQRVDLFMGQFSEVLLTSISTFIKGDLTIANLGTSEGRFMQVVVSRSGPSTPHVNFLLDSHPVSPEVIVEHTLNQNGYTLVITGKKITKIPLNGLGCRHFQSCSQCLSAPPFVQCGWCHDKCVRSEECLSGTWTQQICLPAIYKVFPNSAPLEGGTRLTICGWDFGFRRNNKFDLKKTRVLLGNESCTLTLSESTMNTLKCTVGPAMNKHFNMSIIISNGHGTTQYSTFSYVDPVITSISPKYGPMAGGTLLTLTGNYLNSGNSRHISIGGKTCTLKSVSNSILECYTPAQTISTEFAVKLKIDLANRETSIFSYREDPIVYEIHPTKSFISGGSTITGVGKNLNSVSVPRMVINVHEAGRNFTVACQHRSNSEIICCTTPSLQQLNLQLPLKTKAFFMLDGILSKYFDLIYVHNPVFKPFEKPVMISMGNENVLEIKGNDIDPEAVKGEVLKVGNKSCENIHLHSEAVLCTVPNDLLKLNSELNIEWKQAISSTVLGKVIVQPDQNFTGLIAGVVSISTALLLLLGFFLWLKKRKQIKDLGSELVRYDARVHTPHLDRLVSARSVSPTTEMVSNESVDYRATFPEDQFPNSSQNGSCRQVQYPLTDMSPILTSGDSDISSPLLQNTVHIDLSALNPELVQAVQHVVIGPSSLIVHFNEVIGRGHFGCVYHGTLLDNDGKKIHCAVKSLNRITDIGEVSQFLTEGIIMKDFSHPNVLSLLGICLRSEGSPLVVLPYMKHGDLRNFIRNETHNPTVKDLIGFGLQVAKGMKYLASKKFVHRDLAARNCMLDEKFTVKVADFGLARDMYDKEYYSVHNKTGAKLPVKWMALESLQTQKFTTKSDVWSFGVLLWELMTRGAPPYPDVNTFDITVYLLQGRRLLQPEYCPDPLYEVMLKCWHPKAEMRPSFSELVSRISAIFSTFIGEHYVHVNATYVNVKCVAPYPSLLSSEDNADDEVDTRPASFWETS

[3] = molecular target: heparin sulfate proteoglycans (HSPG); details: HSPG on the cell surface and extracellular matrix; read-out: Kd, low affinity binding site; cited from earlier work

Compound: CCN(CC)CCNC(=O)c1c(C)[nH]c(/C=C2\C(=O)Nc3ccc(F)cc32)c1C [sunitinib]
- T/C (%) = ΔT/ΔC×100, change in tumor volume [1]: 48%

Compound: C#Cc1cccc(Nc2ncnc3cc(OCCOC)c(OCCOC)cc23)c1 [erlotinib]
- T/C (%) = ΔT/ΔC×100, change in tumor volume [2]: 45%

Compound: HGF: multifunctional heterodimeric polypeptide, 102 kDa, ligand of c-Met
- Kd (c-Met receptor): 0.2 nM
- Kd [3]: 1 nM
